In ChEMBL document CHEMBL4507268 (2021):

How the values were obtained:
[1] = biological target: Sodium-dependent noradrenaline transporter (Homo sapiens) (UniProt P23975); details: Compound concentration 10.0 uM
[2] = biological target: Muscarinic acetylcholine receptor M4 (Homo sapiens) (UniProt P08173); details: Compound concentration 10.0 uM
[3] = biological target: T1, Serine/threonine-protein kinase ULK2 (Homo sapiens) (UniProt Q8IYT8); details: Compound concentration 1.0 uM
T1 sequence (whole entry): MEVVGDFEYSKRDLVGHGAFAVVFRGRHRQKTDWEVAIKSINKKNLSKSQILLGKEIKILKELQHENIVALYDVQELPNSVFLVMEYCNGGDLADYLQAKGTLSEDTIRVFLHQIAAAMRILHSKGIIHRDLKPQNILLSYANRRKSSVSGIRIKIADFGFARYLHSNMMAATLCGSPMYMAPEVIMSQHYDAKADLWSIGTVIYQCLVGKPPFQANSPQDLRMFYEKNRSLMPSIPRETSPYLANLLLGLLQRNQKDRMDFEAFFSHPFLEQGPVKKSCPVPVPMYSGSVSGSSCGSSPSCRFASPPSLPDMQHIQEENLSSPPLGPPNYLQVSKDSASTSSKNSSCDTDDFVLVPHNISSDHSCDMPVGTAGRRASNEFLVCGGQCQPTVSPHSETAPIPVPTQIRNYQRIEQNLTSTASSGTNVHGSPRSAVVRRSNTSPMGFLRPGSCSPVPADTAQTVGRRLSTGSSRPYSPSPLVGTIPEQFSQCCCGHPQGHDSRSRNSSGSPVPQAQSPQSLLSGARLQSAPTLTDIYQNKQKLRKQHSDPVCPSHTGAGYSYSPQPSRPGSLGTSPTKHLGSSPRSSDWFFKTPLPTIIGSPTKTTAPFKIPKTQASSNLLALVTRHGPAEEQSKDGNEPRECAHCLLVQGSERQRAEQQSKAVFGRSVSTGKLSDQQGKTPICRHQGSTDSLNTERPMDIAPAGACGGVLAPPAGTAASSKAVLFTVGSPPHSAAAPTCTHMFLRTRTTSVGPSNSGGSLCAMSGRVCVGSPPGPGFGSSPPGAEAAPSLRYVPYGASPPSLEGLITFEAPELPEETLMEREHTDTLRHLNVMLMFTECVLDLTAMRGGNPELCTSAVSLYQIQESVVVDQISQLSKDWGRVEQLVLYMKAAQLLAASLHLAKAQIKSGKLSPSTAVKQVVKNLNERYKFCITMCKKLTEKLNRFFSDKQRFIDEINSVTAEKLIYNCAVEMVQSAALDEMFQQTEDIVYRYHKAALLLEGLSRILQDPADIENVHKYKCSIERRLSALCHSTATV

[4] = biological target: Fibroblast growth factor receptor 2 (Homo sapiens) (UniProt P21802); details: Compound concentration 1.0 uM
Chain of Fibroblast growth factor receptor 2 (Homo sapiens) (P21802 22-821 limits assumed): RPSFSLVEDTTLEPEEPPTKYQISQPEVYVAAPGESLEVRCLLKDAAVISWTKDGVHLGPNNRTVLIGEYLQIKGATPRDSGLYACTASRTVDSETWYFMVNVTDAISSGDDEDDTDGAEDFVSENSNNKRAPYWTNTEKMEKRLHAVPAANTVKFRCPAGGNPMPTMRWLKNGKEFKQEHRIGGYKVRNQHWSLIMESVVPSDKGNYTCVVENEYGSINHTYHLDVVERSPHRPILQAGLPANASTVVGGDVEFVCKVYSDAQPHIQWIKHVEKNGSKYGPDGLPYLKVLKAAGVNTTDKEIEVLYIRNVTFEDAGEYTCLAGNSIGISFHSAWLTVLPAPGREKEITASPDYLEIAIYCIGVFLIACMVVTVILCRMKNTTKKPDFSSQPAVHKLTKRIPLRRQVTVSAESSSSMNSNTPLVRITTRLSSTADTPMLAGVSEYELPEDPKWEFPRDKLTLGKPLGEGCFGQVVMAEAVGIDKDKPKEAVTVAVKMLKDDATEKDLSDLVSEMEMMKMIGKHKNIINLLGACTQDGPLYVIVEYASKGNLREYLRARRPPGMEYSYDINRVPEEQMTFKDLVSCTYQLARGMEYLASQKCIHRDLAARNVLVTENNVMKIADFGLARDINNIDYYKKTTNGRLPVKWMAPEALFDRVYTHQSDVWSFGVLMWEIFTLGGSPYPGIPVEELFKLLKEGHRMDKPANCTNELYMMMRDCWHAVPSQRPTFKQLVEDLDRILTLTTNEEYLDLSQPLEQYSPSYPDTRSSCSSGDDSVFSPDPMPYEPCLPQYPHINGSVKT

[5] = biological target: T2, Serine/threonine-protein kinase TBK1 (Homo sapiens) (UniProt Q9UHD2); details: Compound concentration 1.0 uM
T2 sequence (whole entry): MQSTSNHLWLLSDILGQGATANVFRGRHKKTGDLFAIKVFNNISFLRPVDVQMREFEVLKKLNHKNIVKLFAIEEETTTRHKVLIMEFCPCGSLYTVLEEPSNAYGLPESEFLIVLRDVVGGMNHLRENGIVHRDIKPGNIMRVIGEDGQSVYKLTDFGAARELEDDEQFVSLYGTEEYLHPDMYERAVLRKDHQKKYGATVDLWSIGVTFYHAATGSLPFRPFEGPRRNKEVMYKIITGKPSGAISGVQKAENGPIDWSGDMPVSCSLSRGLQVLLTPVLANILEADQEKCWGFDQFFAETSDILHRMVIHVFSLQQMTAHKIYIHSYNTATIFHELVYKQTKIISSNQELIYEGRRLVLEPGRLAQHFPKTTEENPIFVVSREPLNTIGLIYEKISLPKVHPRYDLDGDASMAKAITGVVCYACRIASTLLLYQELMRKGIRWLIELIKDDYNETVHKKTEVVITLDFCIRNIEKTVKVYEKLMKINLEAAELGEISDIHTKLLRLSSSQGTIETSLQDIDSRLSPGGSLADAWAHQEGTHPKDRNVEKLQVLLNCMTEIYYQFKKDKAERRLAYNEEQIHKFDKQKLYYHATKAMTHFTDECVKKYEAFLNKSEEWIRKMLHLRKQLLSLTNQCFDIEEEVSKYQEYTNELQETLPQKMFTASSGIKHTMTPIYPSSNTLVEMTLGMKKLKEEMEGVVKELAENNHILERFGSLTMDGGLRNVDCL

[6] = biological target: CDK12/Cyclin K (Homo sapiens) (UniProt O75909+Q9NYV4); details: Compound concentration 1.0 uM
Chain of CDK12/Cyclin K (Homo sapiens) (O75909 whole entry, looked up): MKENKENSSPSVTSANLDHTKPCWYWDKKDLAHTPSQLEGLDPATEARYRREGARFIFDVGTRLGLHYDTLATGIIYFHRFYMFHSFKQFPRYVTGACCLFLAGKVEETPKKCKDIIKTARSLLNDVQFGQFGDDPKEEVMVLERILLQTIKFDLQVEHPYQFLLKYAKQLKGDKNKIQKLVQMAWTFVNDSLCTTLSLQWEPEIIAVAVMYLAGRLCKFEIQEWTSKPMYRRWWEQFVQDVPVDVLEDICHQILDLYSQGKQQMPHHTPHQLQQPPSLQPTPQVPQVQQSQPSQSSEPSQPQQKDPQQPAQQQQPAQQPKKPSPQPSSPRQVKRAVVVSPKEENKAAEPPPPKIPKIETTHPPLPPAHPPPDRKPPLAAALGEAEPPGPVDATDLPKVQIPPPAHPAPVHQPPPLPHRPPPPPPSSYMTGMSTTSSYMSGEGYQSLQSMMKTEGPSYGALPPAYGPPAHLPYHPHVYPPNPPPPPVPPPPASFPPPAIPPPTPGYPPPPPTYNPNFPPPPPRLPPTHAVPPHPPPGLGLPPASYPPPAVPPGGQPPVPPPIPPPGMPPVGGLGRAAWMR
Chain of CDK12/Cyclin K (Homo sapiens) (Q9NYV4 whole entry, looked up): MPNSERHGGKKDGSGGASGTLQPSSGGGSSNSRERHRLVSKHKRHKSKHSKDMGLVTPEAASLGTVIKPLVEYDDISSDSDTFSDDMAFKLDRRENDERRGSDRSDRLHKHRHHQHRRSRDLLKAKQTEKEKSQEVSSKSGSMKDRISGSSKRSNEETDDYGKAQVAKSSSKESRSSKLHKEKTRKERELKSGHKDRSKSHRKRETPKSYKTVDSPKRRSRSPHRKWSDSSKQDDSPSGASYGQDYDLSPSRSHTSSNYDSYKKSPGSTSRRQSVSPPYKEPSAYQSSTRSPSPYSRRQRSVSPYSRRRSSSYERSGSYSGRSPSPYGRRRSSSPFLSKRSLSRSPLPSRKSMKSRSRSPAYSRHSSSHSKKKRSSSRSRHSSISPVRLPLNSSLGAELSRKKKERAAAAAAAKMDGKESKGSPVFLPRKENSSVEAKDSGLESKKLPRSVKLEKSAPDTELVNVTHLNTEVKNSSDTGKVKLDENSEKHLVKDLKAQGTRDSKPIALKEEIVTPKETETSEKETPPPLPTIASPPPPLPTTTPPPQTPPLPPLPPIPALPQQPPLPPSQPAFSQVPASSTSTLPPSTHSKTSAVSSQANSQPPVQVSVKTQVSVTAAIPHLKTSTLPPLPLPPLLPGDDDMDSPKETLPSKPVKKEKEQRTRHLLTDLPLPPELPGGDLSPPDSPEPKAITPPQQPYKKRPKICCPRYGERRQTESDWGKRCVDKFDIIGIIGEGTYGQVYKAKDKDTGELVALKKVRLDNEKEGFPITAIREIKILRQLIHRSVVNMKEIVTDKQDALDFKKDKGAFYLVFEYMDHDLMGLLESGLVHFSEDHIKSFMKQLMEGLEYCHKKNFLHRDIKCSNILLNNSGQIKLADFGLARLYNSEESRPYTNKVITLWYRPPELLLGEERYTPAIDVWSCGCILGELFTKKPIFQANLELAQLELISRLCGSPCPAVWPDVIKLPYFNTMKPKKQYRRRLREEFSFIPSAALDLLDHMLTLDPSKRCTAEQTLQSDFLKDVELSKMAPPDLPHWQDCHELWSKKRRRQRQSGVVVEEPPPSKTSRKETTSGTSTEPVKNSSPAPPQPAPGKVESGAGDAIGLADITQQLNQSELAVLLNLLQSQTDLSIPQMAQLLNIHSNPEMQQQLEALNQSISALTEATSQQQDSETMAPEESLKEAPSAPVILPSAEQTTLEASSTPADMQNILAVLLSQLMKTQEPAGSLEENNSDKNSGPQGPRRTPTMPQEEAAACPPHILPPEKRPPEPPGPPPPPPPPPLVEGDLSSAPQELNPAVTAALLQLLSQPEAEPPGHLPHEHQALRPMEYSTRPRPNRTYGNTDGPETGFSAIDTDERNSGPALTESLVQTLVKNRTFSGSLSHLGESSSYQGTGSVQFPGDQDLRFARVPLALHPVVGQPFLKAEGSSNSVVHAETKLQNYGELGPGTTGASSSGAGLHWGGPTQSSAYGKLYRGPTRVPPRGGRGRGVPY

[7] = biological target: T3, Serine/threonine-protein kinase PLK4 (Homo sapiens) (UniProt O00444); details: Compound concentration 1.0 uM
T3 sequence (whole entry): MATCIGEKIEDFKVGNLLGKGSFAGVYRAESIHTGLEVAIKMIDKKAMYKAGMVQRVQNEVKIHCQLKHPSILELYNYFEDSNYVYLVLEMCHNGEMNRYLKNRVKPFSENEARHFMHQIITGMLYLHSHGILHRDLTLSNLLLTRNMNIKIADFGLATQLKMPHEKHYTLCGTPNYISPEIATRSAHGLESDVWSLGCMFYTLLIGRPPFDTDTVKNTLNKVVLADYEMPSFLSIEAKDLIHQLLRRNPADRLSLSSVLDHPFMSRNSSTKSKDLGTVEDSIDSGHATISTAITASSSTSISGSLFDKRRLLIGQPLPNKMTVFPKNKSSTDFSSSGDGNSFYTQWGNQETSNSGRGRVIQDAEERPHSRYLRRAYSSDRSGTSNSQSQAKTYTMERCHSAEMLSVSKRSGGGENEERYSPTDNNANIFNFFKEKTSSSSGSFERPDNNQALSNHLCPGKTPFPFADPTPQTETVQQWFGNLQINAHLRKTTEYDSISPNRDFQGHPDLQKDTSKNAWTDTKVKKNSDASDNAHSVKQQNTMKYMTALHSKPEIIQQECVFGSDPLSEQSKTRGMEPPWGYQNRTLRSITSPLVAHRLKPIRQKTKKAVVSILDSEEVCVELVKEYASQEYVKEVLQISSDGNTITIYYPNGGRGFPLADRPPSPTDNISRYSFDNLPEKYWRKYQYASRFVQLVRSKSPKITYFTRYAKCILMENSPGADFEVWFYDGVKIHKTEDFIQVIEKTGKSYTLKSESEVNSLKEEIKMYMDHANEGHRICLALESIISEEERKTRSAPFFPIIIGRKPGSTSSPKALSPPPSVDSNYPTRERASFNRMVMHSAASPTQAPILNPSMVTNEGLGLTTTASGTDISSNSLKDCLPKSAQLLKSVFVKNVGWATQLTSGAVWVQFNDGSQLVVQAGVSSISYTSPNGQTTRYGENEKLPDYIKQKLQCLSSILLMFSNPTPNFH

[8] = biological target: SRSF protein kinase 2 (Homo sapiens) (UniProt P78362); details: Compound concentration 1.0 uM
Chain of SRSF protein kinase 2 (Homo sapiens) (P78362 whole entry, looked up): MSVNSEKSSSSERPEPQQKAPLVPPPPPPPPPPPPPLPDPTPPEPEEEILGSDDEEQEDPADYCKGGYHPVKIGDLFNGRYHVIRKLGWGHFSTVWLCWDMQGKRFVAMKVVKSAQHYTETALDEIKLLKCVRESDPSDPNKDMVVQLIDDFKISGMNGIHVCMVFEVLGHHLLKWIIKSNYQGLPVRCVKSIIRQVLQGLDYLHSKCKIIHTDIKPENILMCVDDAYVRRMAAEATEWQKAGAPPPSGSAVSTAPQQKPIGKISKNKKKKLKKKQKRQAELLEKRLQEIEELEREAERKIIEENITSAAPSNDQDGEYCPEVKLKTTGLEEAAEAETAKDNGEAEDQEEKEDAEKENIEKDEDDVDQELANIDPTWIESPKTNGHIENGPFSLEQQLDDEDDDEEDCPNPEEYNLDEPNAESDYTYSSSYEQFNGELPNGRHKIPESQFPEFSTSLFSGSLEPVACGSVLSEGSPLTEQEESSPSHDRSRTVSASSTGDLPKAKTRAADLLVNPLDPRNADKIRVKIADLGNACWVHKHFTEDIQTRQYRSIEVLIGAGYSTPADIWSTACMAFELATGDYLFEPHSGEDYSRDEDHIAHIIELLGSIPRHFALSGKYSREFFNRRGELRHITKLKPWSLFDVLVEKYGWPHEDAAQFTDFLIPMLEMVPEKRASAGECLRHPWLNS

Chain of Muscarinic acetylcholine receptor M4 (Homo sapiens) (P08173 whole entry): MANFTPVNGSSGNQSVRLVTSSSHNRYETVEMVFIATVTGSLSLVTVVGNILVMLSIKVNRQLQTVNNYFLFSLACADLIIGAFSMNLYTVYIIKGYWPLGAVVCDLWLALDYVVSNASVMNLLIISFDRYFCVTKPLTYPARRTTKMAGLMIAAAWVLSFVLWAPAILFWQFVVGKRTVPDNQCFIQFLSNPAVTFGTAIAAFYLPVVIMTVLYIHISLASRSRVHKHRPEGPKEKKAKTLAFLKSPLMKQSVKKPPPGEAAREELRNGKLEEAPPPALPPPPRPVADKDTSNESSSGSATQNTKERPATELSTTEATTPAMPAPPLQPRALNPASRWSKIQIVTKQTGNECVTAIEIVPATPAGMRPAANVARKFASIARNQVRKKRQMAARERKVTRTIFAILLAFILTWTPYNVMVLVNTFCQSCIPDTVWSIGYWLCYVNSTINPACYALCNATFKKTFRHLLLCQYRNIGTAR
Chain of Sodium-dependent noradrenaline transporter (Homo sapiens) (P23975 whole entry): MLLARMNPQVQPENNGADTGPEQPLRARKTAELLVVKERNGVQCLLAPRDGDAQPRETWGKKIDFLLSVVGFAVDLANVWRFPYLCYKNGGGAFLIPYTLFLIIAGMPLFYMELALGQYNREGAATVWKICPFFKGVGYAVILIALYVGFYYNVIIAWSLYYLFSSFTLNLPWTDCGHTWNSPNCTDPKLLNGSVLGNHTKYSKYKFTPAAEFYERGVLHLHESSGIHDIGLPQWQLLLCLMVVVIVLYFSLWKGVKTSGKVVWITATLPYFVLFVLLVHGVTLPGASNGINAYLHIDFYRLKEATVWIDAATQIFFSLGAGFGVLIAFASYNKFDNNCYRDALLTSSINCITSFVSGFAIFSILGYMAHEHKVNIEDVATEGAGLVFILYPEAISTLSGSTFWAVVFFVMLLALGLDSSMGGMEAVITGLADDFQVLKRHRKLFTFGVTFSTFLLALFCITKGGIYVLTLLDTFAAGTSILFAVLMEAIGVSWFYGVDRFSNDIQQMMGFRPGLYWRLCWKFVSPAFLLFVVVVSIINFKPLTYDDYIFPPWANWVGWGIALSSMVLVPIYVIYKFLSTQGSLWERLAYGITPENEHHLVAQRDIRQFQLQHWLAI

Cc1nc(C2CCN(C(=O)c3ccc(OC(F)(F)F)cc3N)CC2)c2ncc(N3CCN(C)CC3)cc2n1 [BAY-693]
inactive: inhibition [1] 24.6% | inhibition [2] -2.04%

CN1CCN(c2cnc3c(C4CCN(C(=O)c5ccc(OC(F)(F)F)cc5N)CC4)ncnc3c2)CC1 [BAY-885]
inactive: % residual kinase activity [3] 102% | % residual kinase activity [4] 107% | % residual kinase activity [5] 118% | % residual kinase activity [6] 94% | % residual kinase activity [7] 88% | % residual kinase activity [8] 99%
